Measurements: US20070270436A1, “NOVEL AMINO- AND IMINO-ALKYLPIPERAZINES” (Recordati Ireland Limited, priority 2006, published 2007)
Like-named read-outs stand apart in the source and are kept apart here.

How the values were obtained:
[1] = target: T1, human 5HT1A-serotonergic receptor (Homo sapiens, UniProt P08908); experiment: Radioligand binding to recombinant 5-HT1A receptor ([3H]8-OH-DPAT, HeLa cell membranes); settings: 1 nM [3H]8-OH-DPAT; Ki from IC50 by the Cheng equation; read-out: Ki (nM), binding affinity for 5HT1A receptor
T1 construct: expressed in transfected cells; host or cells: HeLa (human), stably transfected; membranes
T1 sequence (P08908 1-422): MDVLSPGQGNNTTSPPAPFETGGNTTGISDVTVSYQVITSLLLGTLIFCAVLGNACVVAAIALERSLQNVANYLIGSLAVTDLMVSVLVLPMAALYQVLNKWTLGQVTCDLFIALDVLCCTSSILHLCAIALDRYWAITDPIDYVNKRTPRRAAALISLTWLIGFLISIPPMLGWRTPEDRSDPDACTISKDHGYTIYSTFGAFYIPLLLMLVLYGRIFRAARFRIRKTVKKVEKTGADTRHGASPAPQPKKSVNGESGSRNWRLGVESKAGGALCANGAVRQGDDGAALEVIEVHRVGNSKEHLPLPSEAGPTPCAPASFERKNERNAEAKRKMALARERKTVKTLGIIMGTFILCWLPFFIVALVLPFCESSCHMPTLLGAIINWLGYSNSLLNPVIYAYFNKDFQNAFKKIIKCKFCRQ
Method in brief: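 Membranes from HeLa cells stably expressing human 5-HT1A incubated 30 min at 30 °C with 1 nM [3H]8-OH-DPAT in 50 mM Tris pH 7.4, 2.5 mM MgCl2, 10 μM pargyline; non-specific binding with 10 μM 5-HT. Filtration read-out; IC50 by curve fitting, converted to Ki via Cheng-Prusoff.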

[2] = target: T2, 5-HT1A receptors (Rattus norvegicus, UniProt P19327); experiment: Inhibition of serotonergic syndrome (forepaw treading) induced by 8-OH-DPAT in rats (post-synaptic antagonism); format: in vivo; settings: rat, 10 mg/kg p.o.
T2 construct: from tissue; host or cells: living male Sprague-Dawley rats (whole animal, behavioural read-out)
T2 sequence (P19327 1-422): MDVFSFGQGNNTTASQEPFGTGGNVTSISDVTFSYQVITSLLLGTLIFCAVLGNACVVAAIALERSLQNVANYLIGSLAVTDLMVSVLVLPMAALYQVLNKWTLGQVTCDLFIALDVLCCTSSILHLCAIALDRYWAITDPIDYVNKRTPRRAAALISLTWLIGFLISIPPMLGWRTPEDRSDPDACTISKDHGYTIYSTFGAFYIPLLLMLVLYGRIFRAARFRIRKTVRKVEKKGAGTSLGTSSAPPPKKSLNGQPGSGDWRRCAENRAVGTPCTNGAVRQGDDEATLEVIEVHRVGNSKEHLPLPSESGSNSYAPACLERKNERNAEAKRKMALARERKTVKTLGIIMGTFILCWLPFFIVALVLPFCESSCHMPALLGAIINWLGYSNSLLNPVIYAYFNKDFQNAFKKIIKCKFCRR
Experimental: The inhibitory effect of 5-HT1A-receptor antagonists on stereotyped forepaw treading induced in rats by subcutaneous injection of 8-OH-DPAT was evaluated by the method of Tricklebank (Tricklebank et al., Eur. J. Pharmacol., 117: 15, 1985) with minor modifications as described below.
Male Sprague-Dawley rats [Crl: CD® (SD) IGS BR] weighing 150-175 g from Charles River Italia were used. The animals were housed with free access to food and water and maintained on a forced 12-hour-light/12-hour-dark cycle at 22-24° C. of temperature. On the day of the experiment, the rats were placed singly in clear plastic containers, 10-15 minutes before oral administration of the vehicle or compounds to be tested. For evaluation of antagonistic activity, the compounds were administered 1 and 4 hours before induction of stereotypy by 8-OH-DPAT (1 mg/kg subcutaneously). Observation sessions lasted 30 seconds and began 3 minutes after 8-OH-DPAT treatment and were repeated every 3 minutes over a period of 15 minutes.
The appearance of the symptoms induced by postsynaptic stimulation of 5-HT1A receptors was noted, and the intensity was scored using an intensity scale in which: 0=absent, 1=equivocal, 2=present and 3=intense. Behavioural scores for treated rats were accumulated throughout the observation time (5 observation periods) and expressed as mean values of 4 rats/dose. Change in mean values of treated animals in comparison with control (vehicle) group, expressed as per-cent inhibition, was used to quantify the antagonistic activity.
In order to quantitate the potency of the compound of Example 24 in inhibiting the stereotypy (forepaw treading) induced by 8-OH-DPAT, an ED50 value (dose inhibiting by 50% the forepaw treading) was evaluated by means of linear regression using the least square method.

[3] = target: T3, human cloned 5-HT1A receptors (Homo sapiens, UniProt P08908); experiment: [35S]GTPγS binding, functional activity; format: biochemical; set-up: key: neutral antagonists (NA); inverse agonists (IA); settings: HeLa membranes with human 5-HT1A
T3 construct: expressed in transfected cells; host or cells: HeLa (human), stably transfected; membranes
T3 sequence (P08908 1-422): T1 sequence (P08908 1-422)
Experimental: On the date of the experiment, cell membranes from HeLa cells transfected with human cloned 5-HT1A receptors were resuspended in buffer pH 7.4 containing 20 mM HEPES, 3 mM MgCl2 and 120 mM NaCl (Stanton, J. A.; Beer, M. S. Eur. J. Pharmacol. 320, 267-275, 1997). The membranes were incubated with 10 μM GDP and decreasing concentrations of test drugs (from 100 μM to 0.1 nM) or decreasing concentrations of 5-HT (from 100 μM to 0.1 nM, reference curve) for 20 min at 30° C. in a final volume of about 0.25 ml. [^35S]GTPγS (200-250 pM in 10 μl) was added to samples and incubated for a further 30 min at 30° C. Non-specific binding was determined in the presence of 10 μM GTPγS. The incubation was stopped by addition of ice-cold HEPES buffer and rapid filtration on Unifilter GF/C filters, using a Filtermate cell harvester (Packard). The filters were washed four times with total 1.2 ml of same buffer. Radioactivity was counted by liquid scintillation spectrometry with efficiency >90% (TopCount Packard). Stimulation of [^35S]GTPγS binding induced by the compounds tested was expressed as % increase in binding above basal value, being the maximal stimulation observed with 5-HT taken as 100%. The concentration-response curve of the agonistic activity was analyzed by non linear fitting program (De Lean et al., Am. J. Physiol. 235, E97-E102, 1978).
A stimulation of [^35S]GTPγS binding represented the functional correlate of the binding of an agonist compound at the 5-HT1A receptors. Stimulation induced by the endogenous ligand 5-HT was considered the maximal stimulation attainable. Compounds stimulating [^35S]GTPγS binding at a lower level were considered as partial agonists. […] Compounds that reduced [^35S]GTPγS binding were considered as inverse agonists.

[4] = system: rhythmic bladder-voiding contractions; experiment: Rhythmic bladder-voiding contractions induced by bladder filling in anaesthetised rats; format: in vivo, rat; settings: for ED50: Rattus norvegicus
Experimental: Female Sprague-Dawley rats weighing 225-275 g (Crl: CD® (SD) IGS BR, Charles River Italia) were used. The animals were housed with free access to food and water and maintained on a forced 12-hour alternating light-dark cycle at 22-24° C. for at least one week, except during the experiment. The activity on rhythmic bladder voiding contractions was evaluated according to the method of Dray (Dray J., Pharmacol. Methods, 13:157, 1985), with some modifications as in Guarneri (Guarneri, Pharmacol. Res. 27:173, 1993). Briefly, the rats were anaesthetised by subcutaneous injection of 1.25 g/kg (5 ml/kg) urethane, after which the urinary bladder was catheterised via the urethra using PE 50 polyethylene tubing filled with physiological saline. The catheter was tied in place with a ligature around the external urethral orifice and was connected to conventional pressure transducers (Statham P23 ID/P23 XL). […] The bladder was then filled via the recording catheter by incremental volumes of warm (37° C.) saline until reflex bladder-voiding contractions occurred (usually 0.8-1.5 ml). For intravenous injection of bioactive compounds, PE 50 polyethylene tubing filled with physiological saline was inserted into the jugular vein.
From the cystometrogram, the number of contractions recorded 15 minutes before (basal values) and after treatment, as well as the mean amplitude of these contractions (mean height of the peaks in mmHg), was evaluated.
Since most compounds produced an effect that was relatively rapid in onset and led to a complete cessation of bladder contractions, bioactivity was conveniently estimated by measuring the duration of bladder quiescence (i.e., the time during which no contractions occurred). The number of tested animals showing a reduction in the number of contractions higher than 30% of that observed in the basal period was recorded too.
The extrapolated doses which induced a reduction in the number of contractions greater than 30% in 50% of the treated rats (ED50) were also evaluated by the method of Bliss (Bliss C. I., Quart J. Pharm. Pharmacol. 11, 192-216, 1938).

[5] = system: urinary bladder; experiment: Cystometric parameters in conscious rats after oral administration; format: in vivo, rat; settings: 3 mg/kg p.o., 1-5 h after treatment
Experimental: Male Sprague-Dawley rats [Crl: CD® (SD) IGS BR] of 300-400 g body weight supplied by Charles River Italia were used. The animals were housed with free access to food and water and maintained on a forced 12-hour-light/12-hour-dark cycle at 22-24° C. of temperature, except during the experiment. To quantify urodynamic parameters in conscious rats, cystometrographic studies were performed according to the procedure previously reported (Guarneri et al., Pharmacol. Res. 24: 175, 1991).
Briefly, the rats were anaesthetised by intraperitoneal administration of 3 ml/kg of Equithensin solution (pentobarbital 30 mg/kg and chloral hydrate 125 mg/kg) and placed in a supine position. An approximately 10 mm-long midline incision was made in the shaved and cleaned abdominal wall. The urinary bladder was gently freed from adhering tissues, emptied and then cannulated via an incision in the bladder body, using a polyethylene cannula (0.58-mm internal diameter, 0.96-mm external diameter) which was permanently sutured with silk thread. The cannula was exteriorised through a subcutaneous tunnel in the retroscapular area, where it was connected to a plastic adapter in order to avoid the risk of removal by the animal. For drug testing, the rats were utilised one day after implantation.
On the day of the experiment, the rats were placed in modified Bollman cages, i.e., restraining cages that were large enough to permit the rats to adopt a normal crouched posture, but narrow enough to prevent turning around. After a stabilisation period of about 20 minutes, the free tip of the bladder cannula was connected through a T-shaped tube to a pressure transducer (Statham P23XL) and to a peristaltic pump (Gilson minipuls 2) for continues infusion of a warm (37° C.) saline solution into the urinary bladder, at a constant rate of 0.1 ml/minute. The intraluminal-pressure signal during infusion of saline into the bladder was continuously recorded on a polygraph (Rectigraph-8K San-ei with BM614/2 amplifier from Biomedica Mangoni). The cystometrogram was used to evaluate the urodynamic parameters of bladder volume capacity (BVC) and micturition pressure (MP). BVC (ml) is defined as the volume of saline infused into the bladder necessary to induce detrusor contraction followed by micturition. MP (mmHg) is defined as the maximal intravesical pressure caused by contraction during micturition. Basal BVC and MP values were evaluated as mean of the values observed in the cystometrograms recorded in an initial period of 30-60 minutes. Following determination of basal BVC and MP, the infusion was interrupted and the test compounds were administered orally by a stomach tube. Bladder infusion was resumed and changes in BVC and MP were evaluated from the mean values obtained in the cystometrograms observed during 1, 2, 3, 4 and 5 hours after treatment. Compounds were administered in a volume of 2 ml/kg and groups of control animals received the same amount of vehicle (0.5% methocel in water) orally.
Data were expressed as mean ±standard error. The percent changes of BVC and MP versus the basal values, as well as Δ values (difference in ml or mmHg) of BVC and MP (BVC or MP at time “x” minus basal value), were also evaluated for each rat/time. In the figures, data were reported as % changes versus basal values.
Statistical analysis on BVC and MP values, as well as on Δ values, was performed by S.A.S./STAT software, version 6.12. The observed differences between vehicle (control) and test treatments were evaluated on Δ values of BVC and MP, whereas the differences between the values at different times versus basal values were analyzed on original BVC and MP data.

[6] = system: primates; settings: cited from earlier work
[7] = 1 h before 8-OH-DPAT 1 mg/kg s.c., read-out: % Inhibition of forepaw treading, 1 h
[8] = 4 h before 8-OH-DPAT 1 mg/kg s.c., read-out: % Inhibition of forepaw treading, 4 h

SMILES: COc1ccccc1N1CCN(CC[C@@H](c2ccccc2F)[C@H](NC(C)=O)C2CCCCC2)CC1 (racemic) [Example 7, N-{(RS,SR)-1-Cyclohexyl-2-(2-fluorophenyl)-4-[4-(2-methoxyphenyl)-piperazin-1-yl]butyl}acetamide]
- Ki [1]: 1.69 nM
- inhibition at 10 mg/kg [2, 7]: 87%
- inhibition at 10 mg/kg [2, 8]: 86%
- Functional Activity [3]: IA

SMILES: CCN(CC)CC#CCOC(=O)C(O)(c1ccccc1)C1CCCCC1 (stereo not drawn) [Oxybutynin, oxybutynin]
- ED50 ([4]; intravenous administration, n.a. = not active, no significant reduction of the height of the peaks, read-out: ED50 (amplitude) (extrapolated dose inducing a 30% reduction of amplitude of the contractions in 50% of treated rats)): 0.24 mg/kg
- ED50 ([4]; intravenous administration, read-out: ED50 (frequency) (extrapolated dose inducing a reduction of the number of contractions >30% in 50% of treated rats)): > 10 mg/kg
- frequency of bladder contractions ([4]; at 240 μg/kg): did not lower the frequency
- ED10 min (extrapolated dose inducing 10 minutes of disappearance of the contractions) ([4]; intravenous administration): 7.77 mg/kg
- bladder volume capacity (BVC) [5]: slight, not-significant increase
- micturition pressure (MP) [5]: greatly reduced

SMILES: COc1ccccc1N1CCN(CCN(C(=O)C2CCCCC2)c2ccccn2)CC1 [WAY-100635]
- cognitive deficits induced by glutamatergic and cholinergic dysfunction [6]: can alleviate

SMILES: COC(=O)N[C@H](C1CCCCC1)[C@@H](CCN1CCN(c2ccccc2OC)CC1)c1ccccc1F (racemic) [Example 17, (RS,SR)-{1-Cyclohexyl-2-(2-fluorophenyl)-4-[4-(2-methoxyphenyl)-piperazin-1-yl]butyl}carbamic acid methyl ester]
- Ki [1]: 0.68 nM
- inhibition at 10 mg/kg [2, 7]: 75%
- inhibition at 10 mg/kg [2, 8]: 92%
- Functional Activity [3]: IA
